Test results reported in patent publication US20240246920A1, “TRIAZOLE DERIVATIVES WITH ANTIFUNGAL ACTIVITY” (King's College London, priority 2020, published 2024).
≈ marks a conversion by molar mass, not a printed value.

Assays:
[1] = system: C. krusei NCPF3876; experiment: microbe, parasite or virus in culture; format: cell-based, Candida krusei; settings: Pichia kudriavzevii, NCPF3876; Table 4, common panel; 24 hours, ≥50% inhibition; read-out: MIC C. krusei NCPF3876
Protocol: (§1) The minimum inhibitory concentration of test compounds were determined in a panel of Candida species (see Table 4 below), using the a serial dilution method in 96-well plates using the following protocol.
(§2) Starter cultures of fungal strains to be tested were grown in 3 mL of RPMI 2% glucose media incubated at 37° C. with shaking at 200 rpm overnight. The culture media used was 900 mL H2O; 10.4 g RPMI 1640 (with L-glutamine and a pH indicator but without bicarbonate); 34.5 g MOPS and 18 g glucose. The pH of the media was adjusted to 7.0 with 1 M sodium hydroxide.
(§3) Solutions of the compound to be tested were prepared by dissolving the compound in DMSO and subsequently into media to the desired concentrations. […] The last two rows of each plate were control rows containing the culture media alone and the media plus fungi.
(§4) The fungi starter cultures were diluted 1:10 in water in cuvettes. This was then further diluted to an optical density (OD600) of 0.01 in media. 100 μL of the fungi was added to each well giving a starting concentration of fungus of 0.5-5×10^5/mL. One species of fungus was used on each plate. The plates were then held at 37° C. for 24 hours.
(§5) A plate reader was used to measure growth in each well at OD530 nm and the MIC was determined for each test compound. The MIC is defined as the lowest concentration giving rise to inhibition of ≥50% of that of the drug-free control well containing the fungus and media.

[2] = system: Candida auris TDG2211; experiment: microbe, parasite or virus in culture; format: cell-based; settings: Candidozyma auris, TDG2211; Table 4, extended panel; 24 hours, ≥50% inhibition; read-out: MIC Candida auris TDG2211
Protocol: as §1, §2, §3, §4, §5
(§6) The Candida auris strains shown in Table 7 were either taken from the National Collection of Pathogenic Fungi (NCPF) or collected as part of ongoing surveillance studies. The strains were characterised as follows.

[3] = system: Candida auris TDG2506; experiment: microbe, parasite or virus in culture; format: cell-based; settings: Candidozyma auris, TDG2506; Table 4, extended panel; 24 hours, ≥50% inhibition; read-out: MIC Candida auris TDG2506
Protocol: as §1, §2, §3, §4, §5, §6

[4] = system: C. auris TDG1912; experiment: Candida panel MIC, serial dilution in 96-well plates; format: cell-based; settings: Candidozyma auris, TDG1912; Table 4; 24 hours, ≥50% inhibition; read-out: MIC C. auris TDG1912
Protocol: as §1, §2
(§7) Solutions of the compound to be tested were prepared by dissolving the compound in DMSO and subsequently into media to the desired concentrations. 200 μL of compound solution was then added to the wells of the 96-well plate using a serial dilution method row-by row of the plate to give a compound concentration gradient across the plate of from 128 μg/mL to 0.25 μg/mL. The last two rows of each plate were control rows containing the culture media alone and the media plus fungi.
as §4, §5

[5] = system: C. tropicalis NCPF8760; experiment: as above; format: cell-based; settings: NCPF8760, Table 4, common panel, 24 hours, ≥50% inhibition, read-out: MIC C. tropicalis NCPF8760
Protocol: as §1, §2, §7, §4, §5

[6] = system: Candida auris TDG2512; experiment: as above; format: cell-based; settings: Candidozyma auris, TDG2512; Table 4, extended panel; 24 hours, ≥50% inhibition; read-out: MIC Candida auris TDG2512
Protocol: as §1, §2, §7, §4, §5

[7] = system: Candida auris TDG1102; experiment: as above; format: cell-based; settings: Candidozyma auris, TDG1102; Table 4, extended panel; 24 hours, ≥50% inhibition; read-out: MIC Candida auris TDG1102
Protocol: as §1, §2, §7, §4, §5

[8] = system: C. auris 8984; experiment: as above; format: cell-based, Candida auris; settings: Candidozyma auris, 8984; Table 4, extended panel; 24 hours, ≥50% inhibition; read-out: MIC C. auris 8984
Protocol: as §1, §2, §3, §4, §5, §6

[9] = system: C. auris 8977; experiment: as above; format: cell-based, Candida auris; settings: Candidozyma auris, 8977; Table 4, extended panel; 24 hours, ≥50% inhibition; read-out: MIC C. auris 8977
Protocol: as §1, §2, §3, §4, §5, §6

[10] = system: C. auris 8971; experiment: as above; format: cell-based, Candida auris; settings: Candidozyma auris, 8971; Table 4, extended panel; 24 hours, ≥50% inhibition; read-out: MIC C. auris 8971
Protocol: as §1, §2, §3, §4, §5, §6

[11] = system: C. albicans NCPF3281; experiment: as above; format: cell-based, Candida albicans; settings: Candida albicans, NCPF3281; Table 4, common panel; 24 hours, ≥50% inhibition; read-out: MIC C. albicans NCPF3281
Protocol: as §1, §2, §7, §4, §5

[12] = system: C. glabrata NCPF8018; experiment: as above; format: cell-based, Candida glabrata; settings: Nakaseomyces glabratus, NCPF8018; Table 4, common panel; 24 hours, ≥50% inhibition; read-out: MIC C. glabrata NCPF8018
Protocol: as §1, §2, §3, §4, §5

[13] = system: C. parapsilosis NCPF3209; experiment: microbe, parasite or virus in culture; format: cell-based, Candida parapsilosis; settings: Lodderomyces parapsilosis, NCPF3209; Table 4, common panel; 24 hours, ≥50% inhibition; read-out: MIC C. parapsilosis NCPF3209
Protocol: as §1, §2, §3, §4, §5

Structure (SMILES) | MIC [1] | MIC [2] | MIC [3] | MIC [4] | MIC [5] | MIC [6] | MIC [7] | MIC [8] | MIC [9] | MIC [10] | MIC [11] | MIC [12] | MIC [13]
OC(CN1CCC(N2CCC(Nc3ncc(F)cn3)CC2)CC1)(Cn1cncn1)c1ccc(F)cc1F (stereo not drawn) [Example 10, 2-(2,4-Difluorophenyl)-1-(4-((5-fluoropyrimidin-2-yl)amino)-[1,4′-bipiperidin]-1′-yl)-3-(1H-1,2,4-triazol-1-yl)propan-2-ol] | 32 µg/mL (≈ 61.9 µM) | 64 µg/mL (≈ 124 µM) | 8 µg/mL (≈ 15.5 µM) | 4 µg/mL (≈ 7.74 µM) | 64 µg/mL (≈ 124 µM) | 0.5 µg/mL (≈ 0.968 µM) | 4 µg/mL (≈ 7.74 µM) | 0.5 µg/mL (≈ 0.968 µM) | 1 µg/mL (≈ 1.94 µM) | 0.5 µg/mL (≈ 0.968 µM) | 0.015 µg/mL (≈ 0.029 µM) | 64 µg/mL (≈ 124 µM) | 0.125 µg/mL (≈ 0.242 µM)
OC(CN1CCC(N2CCC(Nc3ccccc3)CC2)CC1)(Cn1cncn1)c1ccc(F)cc1F (stereo not drawn) [Example 14, 2-(2,4-difluorophenyl)-1-(4-(phenylamino)-[1,4′-bipiperidin]-1′-yl)-3-(1H-1,2,4-triazol-1-yl)propan-2-ol] | 4 µg/mL (≈ 8.05 µM) | ≤ 0.125 µg/mL | 2 µg/mL (≈ 4.03 µM) | 1 µg/mL (≈ 2.01 µM) | 32 µg/mL (≈ 64.4 µM) | 0.25 µg/mL (≈ 0.503 µM) | 1 µg/mL (≈ 2.01 µM) | 1 µg/mL (≈ 2.01 µM) | 0.25 µg/mL (≈ 0.503 µM) | 0.25 µg/mL (≈ 0.503 µM) | ≤ 0.125 µg/mL | 16 µg/mL (≈ 32.2 µM) | ≤ 0.125 µg/mL
OC(CN1CC2CN(c3ncc(F)cn3)CC2C1)(Cn1cncn1)c1ccc(F)cc1F (stereo not drawn) [Example 15, 2-(2,4-difluorophenyl)-1-(5-(5-fluoropyrimidin-2-yl)hexahydropyrrolo[3,4-c]pyrrol-2(1H)-yl)-3-(1H-1,2,4-triazol-1-yl)propan-2-ol] | 4 µg/mL (≈ 8.98 µM) | 4 µg/mL (≈ 8.98 µM) | > 128 µg/mL | 8 µg/mL (≈ 18 µM) | 8 µg/mL (≈ 18 µM) | 4 µg/mL (≈ 8.98 µM) | 8 µg/mL (≈ 18 µM) | 32 µg/mL (≈ 71.8 µM) | 1 µg/mL (≈ 2.24 µM) | 0.5 µg/mL (≈ 1.12 µM) | 0.12 µg/mL (≈ 0.269 µM) | 1 µg/mL (≈ 2.24 µM) | 0.125 µg/mL (≈ 0.281 µM)
OC(CN1C[C@H]2CC(Nc3ccc(Cc4ccccc4)cc3)C[C@H]2C1)(Cn1cncn1)c1ccc(F)cc1F (stereo partly drawn) [Example 16, 1-((3aR,6aS)-5-((4-benzylphenyl)amino)hexahydrocyclopenta[c]pyrrol-2(1H)-yl)-2-(2,4-difluorophenyl)-3-(1H-1,2,4-triazol-1-yl)propan-2-ol] | ≤ 0.125 µg/mL | ≤ 0.125 µg/mL | 0.5 µg/mL (≈ 0.944 µM) | 1 µg/mL (≈ 1.89 µM) | 1 µg/mL (≈ 1.89 µM) | ≤ 0.125 µg/mL | 1 µg/mL (≈ 1.89 µM) | 1 µg/mL (≈ 1.89 µM) | ≤ 0.125 µg/mL | ≤ 0.125 µg/mL | ≤ 0.125 µg/mL | ≤ 0.125 µg/mL | ≤ 0.125 µg/mL
OC(CN1CCC(Nc2ccc(Cc3ccc(F)cc3)cc2)CC1)(Cn1cncn1)c1ccc(F)cc1F (stereo not drawn) [Example 30, 2-(2,4-difluorophenyl)-1-(4-((4-(4-fluorobenzyl)phenyl)amino)piperidin-1-yl)-3-(1H-1,2,4-triazol-1-yl)propan-2-ol] | ≤ 0.125 µg/mL | ≤ 0.125 µg/mL | ≤ 0.125 µg/mL | ≤ 0.125 µg/mL | ≤ 0.125 µg/mL | ≤ 0.125 µg/mL | ≤ 0.125 µg/mL | ≤ 0.125 µg/mL | ≤ 0.125 µg/mL | ≤ 0.125 µg/mL | ≤ 0.125 µg/mL | ≤ 0.125 µg/mL | ≤ 0.125 µg/mL
OC(CN1CCC(Nc2ccc(OCc3ccncc3)cc2)CC1)(Cn1cncn1)c1ccc(F)cc1F (stereo not drawn) [Example 81] | 0.125 µg/mL (≈ 0.24 µM) | 0.0313 µg/mL (≈ 0.0601 µM) | 0.125 µg/mL (≈ 0.24 µM) | 0.0313 µg/mL (≈ 0.0601 µM) | 0.5 µg/mL (≈ 0.96 µM) | 0.00781 µg/mL (≈ 0.015 µM) | 0.0625 µg/mL (≈ 0.12 µM) | 0.125 µg/mL (≈ 0.24 µM) | 0.0156 µg/mL (≈ 0.03 µM) | 0.0156 µg/mL (≈ 0.03 µM) | 0.00781 µg/mL (≈ 0.015 µM) | 2 µg/mL (≈ 3.84 µM) | 0.00781 µg/mL (≈ 0.015 µM)
